The record followed here is the supplement of paper PMC11061612.

Assay [1] deals with JVM-3 (B-Cell Non-Hodgkin's Lymphoma). Briefly: Bliss excess, mean over the matrix (fraction); higher = more synergy. The method, boiled down: (§1)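 Cell lines grown in DMEM/F12 or RPMI with 10% FBS were plated in 1536-well plates and held 24 hours at 37°C, 5% CO2 before 72 hours of exposure to two-drug dose matrices, with DMSO typically at 0.2%. CellTiter-Glo 2.0 luminescence gave viability, which was converted to inhibition. Vehicle wells were set to 0 and blank wells to 1. Combination Emax is the second-highest inhibition in the matrix, and Bliss excess is the observed combination effect minus the expected EA + EB − EA·EB, where EA and EB are the single-agent effects.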

Assay [2] shares this test system. Briefly: combination Emax (second highest fraction inhibited in the dose matrix, 72 h); higher = more inhibition; extreme values may be limits of the assay. The method, boiled down: as §1
The test system of assay [3] is HSC-4 (Oral Cavity Carcinoma). The description is as above. A digest of the protocol: as §1
For assay [4], the system named is BT-549 (Breast Carcinoma). The description is as above. A digest of the protocol: as §1
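For Bliss excess, mean over the matrix in this document: after 72 h of two-drug dosing.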

For the molecule `COc1cccc2c1C(=O)c1c(O)c3c(c(O)c1C2=O)C[C@@](O)(C(=O)CO)C[C@@H]3O[C@H]1C[C@H](N)[C@H](O)[C@H](C)O1` [Doxorubicin] + Cc1cc2ncnn2cc1Nc1ncc2c(n1)n(C1CCOCC1)c(=O)n2C [AZD7648] (first compound max 1 µM, 7x7, partner max 10 µM), the Bliss excess in assay [1] was found to be 0.0661. Also, the entries for the “combination Emax” value in assay [2], in assay [3] and in assay [4] were 0.978, 0.437 and 0.441, respectively.

For `COc1cccc(OCCCN)c1-c1cc(Nc2cnc(C#N)cn2)n[nH]1` [Prexasertib] + C=CCn1c(=O)c2cnc(Nc3ccc(N4CCN(C)CC4)cc3)nc2n1-c1cccc(C(C)(C)O)n1 [AZD1775] (first compound max 1 µM, partner max 1 µM), the Bliss excess in assay [1] came to 0.0369. The entries for the “combination Emax” value in assay [2], in assay [3] and in assay [4] were 0.973, 0.641 and 0.845, respectively.

Regarding `COc1cccc(OCCCN)c1-c1cc(Nc2cnc(C#N)cn2)n[nH]1` [Prexasertib] + CCc1c2c(nc3ccc(O)cc13)-c1cc3c(c(=O)n1C2)COC(=O)[C@]3(O)CC [SN-38] (first compound max 1 µM, 7x7, partner max 0.3 µM), the Bliss excess in assay [1] was -0.0363. Besides, the “combination Emax” value came to 0.994 in assay [2], 0.9 in assay [3] and 0.864 in assay [4].

For the molecule `COc1cccc(OCCCN)c1-c1cc(Nc2cnc(C#N)cn2)n[nH]1` [Prexasertib] + CN(C)CCCOc1ccc(-c2ccc3ncc4c(c3c2)n(C2CCOCC2)c(=O)n4C)cn1 [AZD0156] (first compound max 1 µM, 7x7, partner max 1 µM), the Bliss excess in assay [1] is -0.0097. The results for the “combination Emax” value in assay [2], in assay [3] and in assay [4] were 0.985, 0.604 and 0.707, respectively.

For the molecule `COc1cccc(OCCCN)c1-c1cc(Nc2cnc(C#N)cn2)n[nH]1` [Prexasertib] + C[C@@H]1COCCN1C2=NC(=NC(=C2)C3(CC3)[S@](=N)(=O)C)C4=C5C=CNC5=NC=C4 [AZD6738] (first compound max 1 µM, 7x7, partner max 10 µM), in assay [1], the Bliss excess is -0.0351. The “combination Emax” value turned out to be 0.966 in assay [2], 0.666 in assay [3] and 0.698 in assay [4].

For `COc1cccc(OCCCN)c1-c1cc(Nc2cnc(C#N)cn2)n[nH]1` [Prexasertib] + Cc1cc2ncnn2cc1Nc1ncc2c(n1)n(C1CCOCC1)c(=O)n2C [AZD7648] (first compound max 1 µM, 7x7, partner max 10 µM), in assay [1], the Bliss excess is -0.027. For the same molecule, the “combination Emax” value in assay [2] came to 0.981; in assay [3] it was 0.588; in assay [4] it was 0.672.

In the case of `COc1cccc(OCCCN)c1-c1cc(Nc2cnc(C#N)cn2)n[nH]1` [Prexasertib] + O=C(c1cc(Cc2n[nH]c(=O)c3ccccc23)ccc1F)N1CCN(C(=O)C2CC2)CC1 [Olaparib] (first compound max 1 µM, 7x7, partner max 10 µM), the Bliss excess in assay [1] is -0.0314. Moreover, the “combination Emax” value in assay [2] was 0.986; in assay [3], 0.674; in assay [4] it was 0.654.

On to `CCc1c2c(nc3ccc(O)cc13)-c1cc3c(c(=O)n1C2)COC(=O)[C@]3(O)CC` [SN-38] + CN(C)CCCOc1ccc(-c2ccc3ncc4c(c3c2)n(C2CCOCC2)c(=O)n4C)cn1 [AZD0156] (first compound max 0.3 µM, 7x7, partner max 1 µM), for which the Bliss excess in assay [1] is -0.0309. Moreover, the “combination Emax” value in assay [2] stood at 0.982; in assay [3], 0.804; in assay [4], 0.423.

Take `CC(=O)Nc1cccc(-n2c(=O)n(C3CC3)c(=O)c3c(Nc4ccc(I)cc4F)n(C)c(=O)c(C)c32)c1` [Trametinib] + Cc1nc(-c2cn3c(n2)-c2ccc(-c4cnn(C(C)(C)C(N)=O)c4)cc2OCC3)n(C(C)C)n1 [Taselisib] (first compound max 1 µM, 7x7, partner max 10 µM): the Bliss excess in assay [1] was -0.006. Further, the “combination Emax” value in assay [2] turned out to be 0.734; in assay [3], 0.686; in assay [4], 0.497.

As to `CC1(C)CCC(CN2CCN(c3ccc(C(=O)NS(=O)(=O)c4ccc(NCC5CCOCC5)c([N+](=O)[O-])c4)c(Oc4cnc5[nH]ccc5c4)c3)CC2)=C(c2ccc(Cl)cc2)C1` [Venetoclax] + C1CN(CCC1(C(=O)N[C@@H](CCO)C2=CC=C(C=C2)Cl)N)C3=NC=NC4=C3C=CN4 [Capivasertib] (first compound max 1 µM, 7x7, partner max 3 µM), the Bliss excess in assay [1] was 0.0192. Also, the figures for the “combination Emax” value in assay [2], in assay [3] and in assay [4] were 0.636, 0.306 and 0.239, respectively.

As to `CC1(C)CCC(CN2CCN(c3ccc(C(=O)NS(=O)(=O)c4ccc(NCC5CCOCC5)c([N+](=O)[O-])c4)c(Oc4cnc5[nH]ccc5c4)c3)CC2)=C(c2ccc(Cl)cc2)C1` [Venetoclax] + C=CCn1c(=O)c2cnc(Nc3ccc(N4CCN(C)CC4)cc3)nc2n1-c1cccc(C(C)(C)O)n1 [AZD1775] (first compound max 1 µM, partner max 1 µM), the Bliss excess in assay [1] was -0.0521. Besides, the figures for the “combination Emax” value in assay [2], in assay [3] and in assay [4] were 0.953, 0.372 and 0.778, respectively.

Take `CC1(C)CCC(CN2CCN(c3ccc(C(=O)NS(=O)(=O)c4ccc(NCC5CCOCC5)c([N+](=O)[O-])c4)c(Oc4cnc5[nH]ccc5c4)c3)CC2)=C(c2ccc(Cl)cc2)C1` [Venetoclax] + CCN(CCO)CCCOc1ccc2c(Nc3cc(CC(=O)Nc4cccc(F)c4)[nH]n3)ncnc2c1 [AZD2811] (first compound max 1 µM, 7x7, partner max 1 µM): the Bliss excess in assay [1] came to 0.162. For the same molecule, the entries for the “combination Emax” value in assay [2], in assay [3] and in assay [4] were 0.653, 0.203 and 0.336, respectively.

For the molecule `CC1(C)CCC(CN2CCN(c3ccc(C(=O)NS(=O)(=O)c4ccc(NCC5CCOCC5)c([N+](=O)[O-])c4)c(Oc4cnc5[nH]ccc5c4)c3)CC2)=C(c2ccc(Cl)cc2)C1` [Venetoclax] + CN(C)CCCOc1ccc(-c2ccc3ncc4c(c3c2)n(C2CCOCC2)c(=O)n4C)cn1 [AZD0156] (first compound max 1 µM, 7x7, partner max 1 µM), the Bliss excess in assay [1] is 0.0085. Besides, the “combination Emax” value stood at 0.673 in assay [2], 0.14 in assay [3] and 0.179 in assay [4].

Turning to `CC1(C)CCC(CN2CCN(c3ccc(C(=O)NS(=O)(=O)c4ccc(NCC5CCOCC5)c([N+](=O)[O-])c4)c(Oc4cnc5[nH]ccc5c4)c3)CC2)=C(c2ccc(Cl)cc2)C1` [Venetoclax] + COc1cc(Nc2ncc3c(n2)-c2ccc(Cl)cc2C(c2c(F)cccc2OC)=NC3)ccc1C(=O)O [Alisertib] (first compound max 1 µM, 7x7, partner max 10 µM), the Bliss excess in assay [1] was determined as 0.215. Further, the “combination Emax” value in assay [2] came to 0.823; in assay [3], 0.28; in assay [4], 0.529.

With `CC1(C)CCC(CN2CCN(c3ccc(C(=O)NS(=O)(=O)c4ccc(NCC5CCOCC5)c([N+](=O)[O-])c4)c(Oc4cnc5[nH]ccc5c4)c3)CC2)=C(c2ccc(Cl)cc2)C1` [Venetoclax] + C[C@@H]1COCCN1C2=NC(=NC(=C2)C3(CC3)[S@](=N)(=O)C)C4=C5C=CNC5=NC=C4 [AZD6738] (first compound max 1 µM, 7x7, partner max 10 µM), the Bliss excess in assay [1] is 0.0106. Further, the results for the “combination Emax” value in assay [2], in assay [3] and in assay [4] were 0.9, 0.601 and 0.52, respectively.

With `CC1(C)CCC(CN2CCN(c3ccc(C(=O)NS(=O)(=O)c4ccc(NCC5CCOCC5)c([N+](=O)[O-])c4)c(Oc4cnc5[nH]ccc5c4)c3)CC2)=C(c2ccc(Cl)cc2)C1` [Venetoclax] + C[C@@H](Nc1cc(F)cc(F)c1)c1cc(C(=O)N(C)C)cc2c(=O)cc(N3CCOCC3)oc12 [AZD8186] (first compound max 1 µM, 7x7, partner max 3 µM), the Bliss excess in assay [1] is -0.0619. For the same molecule, the “combination Emax” value in assay [2] worked out at 0.486; in assay [3], 0.177; in assay [4] it was 0.258.

Turning to `CC1(C)CCC(CN2CCN(c3ccc(C(=O)NS(=O)(=O)c4ccc(NCC5CCOCC5)c([N+](=O)[O-])c4)c(Oc4cnc5[nH]ccc5c4)c3)CC2)=C(c2ccc(Cl)cc2)C1` [Venetoclax] + Cc1cc2ncnn2cc1Nc1ncc2c(n1)n(C1CCOCC1)c(=O)n2C [AZD7648] (first compound max 1 µM, 7x7, partner max 10 µM), in assay [1], the Bliss excess is -0.0799. The results for the “combination Emax” value in assay [2], in assay [3] and in assay [4] were 0.64, 0.11 and 0.258, respectively.

As to `CC1(C)CCC(CN2CCN(c3ccc(C(=O)NS(=O)(=O)c4ccc(NCC5CCOCC5)c([N+](=O)[O-])c4)c(Oc4cnc5[nH]ccc5c4)c3)CC2)=C(c2ccc(Cl)cc2)C1` [Venetoclax] + Cn1cnc2c(F)c(Nc3ccc(Br)cc3Cl)c(C(=O)NOCCO)cc21 [Selumetinib] (first compound max 1 µM, 7x7, partner max 3 µM), the Bliss excess in assay [1] is -0.0583. Also, the “combination Emax” value stood at 0.486 in assay [2], 0.243 in assay [3] and 0.106 in assay [4].
